Columns and labels:
[1] = system: golden hamsters (60% high-fat food, STZ induced); experiment: Golden hamster disease model, animal model induction group (16-week-old group): blood biochemical indexes and body weight; type: in vivo; conditions: for change rate of blood glucose %: 0.1 mL of 6.8 mg/mL DMSO solution + 0.25 mL whole milk by gavage once a day for 2 weeks; for change rate of body weight after deduction of DMSO blank %: DMSO blank deducted; for average body weight after administration/g / change of body weight/g / change rate of body weight %: after gavage once a day for 2 weeks; for HDL % / LDL % / total cholesterol % / triglyceride %: change rate, gavage once a day for 2 weeks
Method: Animals and feed: 1) 8-week-old male golden hamsters with a body weight range of 100±5 g were selected; 2) 60% high-fat food; 3) 30% high-fat food; 4) general feed: NRC standard feed, containing 5% fat, total calories 4200 kcal/kg.
Animal model induction group (16-week-old group): 1) fed with 60% high-fat food for 2 weeks under standard environment; 2) STZ intraperitoneal injection twice every two days, 50 mg/kg each time; 3) After STZ induction, the golden hamsters were continuous fed for 1 week; 4) Blood was taken from the ocular venous plexus, and the initial body weight, blood glucose, total cholesterol, LDL-c, HDL-c and triglyceride were measured, and the golden hamsters were grouped in parallel according to animal biochemical indicators, 8 in each group; 5) Gavage of compounds: 0.1 mL of solution of compound (concentration: 6.8 mg/mL, DMSO solution) and 0.25 mL of whole milk were mixed evenly and administrated by gavage once a day for 2 weeks; 6) Blank control: 0.1 mL of DMSO and 0.25 mL of whole milk were mixed evenly and administrated by gavage once a day for 2 weeks; 7) Observation time: 14 days later, blood was taken from the ocular venous plexus, and the body weight, blood glucose, total cholesterol, LDL-c, HDL-c and triglyceride were measured.
Instruments: Shimadzu UV-1750 spectrophotometer, clinical determination kit (Changchun Huili Biotechnology Co., Ltd.)
Determination of blood glucose: glucose oxidase method, kit
Determination of total cholesterol (COD-PAP method), kit
Determination of low density lipoprotein cholesterol (direct method), kit
Determination of triglyceride (GP-PAP method)
Determination of high density lipoprotein (direct method), kit

[2] = system: Malondialdehyde (MDA) in serum; experiment: In vivo anti-lipid oxidation experiment (serum MDA, TBA method); parameters: inhibition rate %: concentration or dose not given beside the values; conditions: MAD lipid peroxidation in vivo; for inhibition rate %: relative to solvent DMSO and Chow averages; for avarage value of OD: serum, TBA method, 532 nm
From the text: Experimental principle: Malondialdehyde (MDA) in liposome degradation products could condense with thiobarbituric acid (TBA) to form a red product which has a maximum absorption peak at 532 nm. The spectrophotometer was used to measure the relative absorption value to calculate the antioxidant value.
Reagents: Malondialdehyde (MDA) test kit (article number: A003-1, […], Nanjing Jiancheng), glacial acetic acid of analytically pure grade.
Reagent preparations: 1) Reagent I: Reagent 1 in the kit was taken out from the refrigerator and subjected to natural warming until a transparent liquid is obtained; 2) Reagent II: 170 mL of double-distilled water was added to each bottle and mixed; 3) Reagent III: A dry powder in the kit was dissolved in 60 mL of double-distilled water at 90 to 100° C. After the dry powder was dissolved totally, 30 mL of glacial acetic acid was added and kept in dark place; 4) Standard: 10 nmol/mL tetraethoxypropane.
Experimental procedures: 1) Blank tube: To 2 mL centrifuge tube were added anhydrous ethanol (70 μl), Reagent I (70 μl), Reagent II (0.8 mL) and Reagent III (0.8 mL) in sequence; 2) Standard tube: To 2 mL centrifuge tube were added standard (70 μl), Reagent I (70 μl), Reagent 11 (0.8 mL) and Reagent III (0.8 mL) in sequence; 3) Measuring tube: To 2 mL centrifuge tube were added the serum to be tested and physiological saline (the total volume of serum and physiological saline is 70 μl), Reagent I (70 μl), Reagent II (0.8 mL) and Reagent III (0.8 mL) in sequence; 4) Control tubes: all samples are set up with corresponding control tubes. To a 2 mL centrifuge tube were added the serum to be tested and physiological saline (the total volume of serum and physiological saline is 70 μl), Reagent I (70 μl), Reagent II (0.8 mL) and 50% glacial acetic acid (0.8 mL) in sequence.
After the above reagents were added, the mixture was mixed homogenously. Then the mixture was left in the water bath at 95° C. for 60 minutes. The sample was centrifuged at 4000 rpm for 10 minutes. The supernatant was taken for the measurement of the OD value.
Experimental data processing: the MDA content in serum was calculated as follows: MDA=(OD valuemeasured−OD valuecontrol)/OD valuestandard*concentration of the standard Inhibition rate %=100−(ODsample-average value−average value of Chow)/(average value of the solvent DMSO−average value of Chow)*100

[3] = In vitro free radical inhibition test (DPPH method); conditions: 8 μL of 20 mmol/L compound in 1 mL DPPH 0.059 mg/mL ethanol, 60 min dark, 517 nm; for inhibition rate %: DPPH; for Relative inhibition ability on free radicals: inhibition rate of AGI1067 on DPPH defined as 100
From the text: 1. In Vitro Free Radical Inhibition Test (DPPH Method)
The single electron of DPPH radical has a strong absorption at […], and its alcohol solution is purple. In the presence of a free radical scavenger, the absorption of DPPH radical is weakened or disappeared for the reason that the free radical scavenger is paired with the single electron of DPPH radical, and the degree of discoloration is quantitatively related to the number of electrons DPPH radical receives. Therefore, a spectrophotometer can be used to quickly and quantitatively analyze the free radical scavenging rate of the compound.
1) 1 mL solution of DPPH in absolute ethanol (concentration: 0.059 mg/mL) was taken; 2) 8 μL of the compound to be tested (20 mmol/L) were added; 3) after mixing well, the resultant was kept in dark at room temperature for 60 minutes, 4) the absorbance of the sample at 517 nm was measured.

SMILES | change rate of blood glucose % [1] | change rate of body weight after deduction of DMSO blank % [1] | average body weight after administration/g [1] | change of body weight/g [1] | change rate of body weight % [1] | HDL % [1] | LDL % [1] | total cholesterol % [1] | triglyceride % [1] | inhibition rate % [2] | avarage value of OD [2] | inhibition rate % [3] | Relative inhibition ability on free radicals [3]
CC(=O)Oc1ccccc1C(=O)OCCC(C)(C)c1cc(SC(C)(C)Sc2cc(C(C)(C)C)c(O)c(C(C)(C)C)c2)cc(C(C)(C)C)c1O [Compound 13, 3-(3-(tert-butyl)-5-((2-((3,5-di-tert-butyl-4-hydroxyphenyl)thio)propan-2-yl)thio)-2-hydroxyphenyl)-3-methylbutyl 2-acetoxybenzoate] | −3.9% | −7.8% | 136.6 g | 2.6 g | 2.0% | 57.9% | −6.7% | −9.0% | −10.0% | 53.8% | 7.21 | 34.1% | 78.2
CC(C)(Sc1cc(C(C)(C)C)c(O)c(C(C)(C)C)c1)Sc1cc(C(C)(C)C)c(O)c(C(C)(C)CCNC(=O)CCCCC2CCSS2)c1 (centres unmarked) [Compound 23, N-(3-(3-(tert-butyl)-5-((2-((3,5-di-tert-butyl-4-hydroxyphenyl)thio)propan-2-yl)thio)-2-hydroxyphenyl)-3-methylbutyl)-5-(1,2-dithiolan-3-yl)pentanamide] | 19.5% | −3.8% | 147.2 g | 8.3 g | 6.0% | 102.1% | −11.2% | −6.4% | 21.9% | 82.6% | 6.10 | 12.1% | 27.7
CC(C)(Sc1cc(C(C)(C)C)c(O)c(C(C)(C)C)c1)Sc1cc(C(C)(C)C)c(O)c(C(C)(C)CCOC(=O)CCC(=O)O)c1 [Compound 11, 4-(3-(3-(tert-butyl)-5-((2-((3,5-di-tert-butyl-4-hydroxyphenyl)thio)propan-2-yl)thio)-2-hydroxyphenyl)-3-methylbutoxy)-4-oxobutanoic acid] | 35.3% | −5.5% | 140.9 g | 5.8 g | 4.3% | 49.7% | −8.1% | −0.4% | 8.7% | 44.7% | 7.56 | 19.9% | 45.5
CC(C)(Sc1cc(C(C)(C)C)c(O)c(C(C)(C)CCO)c1)Sc1cc(C(C)(C)C)c(O)c(C(C)(C)CCO)c1 [Compound 9, 4,4′-(propane-2,2-diylbis(thio))bis(2-(tert-butyl)-6-(4-hydroxy-2-methylbutan-2-yl)phenol)] | – | – | – | – | – | – | – | – | – | 62.9% | 6.86 | 55.1% | 126.3
CC(C)(C)c1cc(SSc2cc(C(C)(C)C)c(O)c(C(C)(C)CCO)c2)cc(C(C)(C)C)c1O [Compound 6, 2,6-di-tert-butyl-4-((3-(tert-butyl)-4-hydroxy-5-(4-hydroxy-2-methylbutan-2-yl)phenyl)disulfanediyl)phenol] | – | – | – | – | – | – | – | – | – | 71.2% | 6.54 | 53.2% | 95.2
CC(=O)OCCC(C)(C)c1cc(SC(C)(C)Sc2cc(C(C)(C)C)c(O)c(C(C)(C)C)c2)cc(C(C)(C)C)c1O [Compound 14, 3-(3-(tert-butyl)-5-((2-((3,5-di-tert-butyl-4-hydroxyphenyl)thio)propan-2-yl)thio)-2-hydroxyphenyl)-3-methylbutyl acetate] | – | – | – | – | – | – | – | – | – | 55.9% | 7.13 | 37.3% | 85.5
CC(C)(Sc1cc(C(C)(C)C)c(O)c(C(C)(C)C)c1)Sc1cc(C(C)(C)C)c(O)c(C(C)(C)CCNS(=O)(=O)C2CC2)c1 [Compound 25, N-(3-(3-(tert-butyl)-5-((2-((3,5-di-tert-butyl-4-hydroxyphenyl)thio)propan-2-yl)thio)-2-hydroxyphenyl)-3-methylbutyl)cyclopropanesulfonamide] | – | – | – | – | – | – | – | – | – | 48.1% | 7.43 | 28.6% | 29.3
COc1cc(SC(C)(C)Sc2ccc(O)c(OC)c2)ccc1O [Compound 7, 4,4′-(propane-2,2-diylbis(thio))bis(2-methoxyphenol)] | – | – | – | – | – | – | – | – | – | 47.6% | 7.45 | 73.9% | 169.4
CC(C)(Sc1cc(C(C)(C)C)c(O)c(C(C)(C)C)c1)Sc1cc(C(C)(C)C)c(O)c(C(C)(C)CCn2cncn2)c1 [Compound 24, 2,6-di-tert-butyl-4-((2-((3-(tert-butyl)-4-hydroxy-5-(2-methyl-4-(1H-1,2,4-triazol-1-yl)butan-2-yl)phenyl)thio)propan-2-yl)thio)phenol] | – | – | – | – | – | – | – | – | – | 53.3% | 7.23 | 19.2% | 34.8
CCOC(=O)CCSC(C)(C)Sc1cc(C(C)(C)C)c(O)c(C(C)(C)C)c1 [Compound 3, ethyl 3-((2-((3,5-di-tert-butyl-4-hydroxyphenyl)thio)propan-2-yl)thio)propionate] | – | – | – | – | – | – | – | – | – | 34.9% | 7.94 | 43.7% | 100.2
CC(C)(Sc1cc(C(C)(C)C)c(O)c(C(C)(C)C)c1)Sc1cc(C(C)(C)C)c(O)c(C(C)(C)CCOC(=O)CCC(=O)NCCS(=O)(=O)O)c1 [Compound 27, 2-(4-(3-(3-(tert-butyl)-5-((2-((3,5-di-tert-butyl-4-hydroxyphenyl)thio)propan-2-yl)thio)-2-hydroxyphenyl)-3-methylbutoxy)-4-oxobutanamido)ethane-1-sulfonic acid] | – | – | – | – | – | – | – | – | – | 30.2% | 8.12 | 18.1% | 41.5

Reference: US11649220B2 (DEMOTECH.INC., priority 2018, dated 2023)
